The results in this text go back to US12458650B2, “Urination disorder-improving agent” (ASKA Pharmaceutical Co., Ltd., priority 2019, dated 2025).

Molecules are shown by their SMILES.

For data set [1], the system named is lower urinary tract obstruction model of rats. Nature of the data set: Test Example 1: urination function in female rat lower urinary tract obstruction model (cystometry, tissue wet weights, survival). The settings on record: 2 weeks. In kind it is in vivo. From the text:
A lower urinary tract obstruction model of rats was used as a test system. A test substance was orally administered to the lower urinary tract obstruction model repeatedly over two (2) weeks to examine the action on the urination function in the lower urinary tract obstruction model.
More specifically, the rats (female, Crl:CD(SD), 8-week-old; Charles River Laboratories Japan, Inc.) were operated to form lower urinary tract obstruction and repeatedly received oral administration of the test substance at a frequency of once a day over two (2) weeks. After the completion of the administration, each rat was subjected to bladder catheterization under anesthesia, cystometry under no anesthesia, then cystometry under urethane anesthesia, and euthanasia under deep anesthesia, and the tissues (bladder, kidney) of the rat were extracted or surgically removed. As a normal group, the rats without operation for forming lower urinary tract obstruction were used.
The test system, the test substances, and the dosage are as follows. • Normal group: 0.5 v/v. Polysorbate 80 solution, 10 mL/kg (n=6) • Solvent group (control group): 0.5 v/v % Polysorbate 80 solution, 10 mL/kg (n=15) • Group A: Compound A, 10 mg/kg (n=15) • Group B3: Compound B, 3 mg/kg (n=7) • Group B10: Compound B, 10 mg/kg (n=7)
The residual urine volume, the urination efficiency, and the bladder capacity were measured as follows.
After urination, the residual urine was aspirated from the outlet end of the catheter placed in the bladder to measure the volume (mL) of the residual urine.
After urination, the weight of the voided urine was measured to determine the voided volume (g=mL), and then the urination efficiency was calculated by the following equation: Urination efficiency (%)=[(Voided volume (mL))/(Voided volume (mL)+Residual urine volume (mL))]×100 [Bladder Capacity]
The bladder capacity was calculated from the voided volume and the residual urine volume by the following equation: Bladder capacity(mL)=Voided volume (mL)+Residual urine volume (mL)
Moreover, the wet weight of the extracted bladder and that of the extracted kidney were measured.

Data set [2] has as its system model of a urination disorder associated with streptozocin-induced diabetes. Nature of the data set: Test Example 6: urination disorder model associated with streptozocin-induced diabetes, compound A versus dutasteride. In kind it is in vivo, rat. On the procedure: As described below, a model of a urination disorder associated with streptozocin-induced diabetes was prepared as a urination disorder model in accordance with Test Example 4 to evaluate the effects of the compound A and the compound C on a urination disorder. This model has no benign prostatic hyperplasia and is a model of a urination disorder associated with neuropathy and smooth muscle contraction disorder.
The body weights of Rats (male, Crl:CD(SD), 5-week-old; Charles River Laboratories Japan, Inc.) were measured. On the basis of the body weight, the rats were grouped or divided into two (2) groups. The day after the rats were grouped, a fist group received intraperitoneal administration of a citrate buffer (pH 4.5) (10 mL/kg) having a concentration of 0.1 mmol/L, and a second group received intraperitoneal administration of streptozocin (STZ; Sigma-Aldrich) (50 mg/kg). Streptozocin (STZ) was administered in the form of a solution of streptozocin having a concentration of 5 mg/mL in the citrate buffer.
About one (1) week after streptozocin (STZ) was administered, the body weight and the fasting blood glucose were measured. In the streptozocin (STZ) administration group (the second group), individuals having a fasting blood glucose level of not less than 300 mg/dL were used as animals with induced diabetes. These animals with induced diabetes are a model having no abnormality of the prostate (having no benign prostatic hyperplasia). On the basis of the body weight and the fasting blood glucose level, the animals (models) with induced diabetes were grouped or divided into three (3) groups by randomized, multivariable block allocation.
To the three model groups with induced diabetes, a 0.5 v/v % Polysorbate 80 solution (0.5% P) (10 mL/kg), the compound A (3 mg/kg), and the compound C (dutasteride) (0.3 mg/kg) were orally administered, respectively, wherein the administration schedule in all groups was a frequency of once a day, only on weekdays, over four (4) weeks. Moreover, to the above-mentioned first group, a 0.5 v/v % Polysorbate 80 solution (0.5% P) (10 mL/kg) was orally administered in the same administration schedule (normal group). On the last day of administration, a cannula was inserted into and secured to the dome of the bladder under isoflurane anesthesia, and cystometry (Cystometogram, CMG) was conducted in the order of under awake condition and under urethane anesthesia to measure the intravesical pressure, the voided volume, and the residual urine volume. After the completion of the measurement, the blood was collected under deep isoflurane anesthesia, and then the prostate (ventral prostate, dorsolateral prostate) was extracted and each was weighed. Moreover, the blood glucose level in the collected blood was measured.
The test substances and the dosage in the test system (rats having the urination disorder associated with diabetes) are as follows. • Normal group: citrate buffer 10 mL/kg (intraperitoneal administration), 0.5% P 10 mL/kg (oral administration) (n=10) • Solvent group (control group): STZ 50 mg/kg (intraperitoneal administration), 0.5% P 10 mL/kg (oral administration) (n=10) • Group A3: STZ 50 mg/kg (intraperitoneal administration), Compound A 3 mg/kg (oral administration) (n=10) • Group C0.3: STZ 50 mg/kg (intraperitoneal administration), Compound C (dutasteride) 0.3 mg/kg (oral administration) (n=10)
Urination parameter: In the same manner as in Test Example 4, the residual urine volume (mL) and the urination efficiency % were determined as urination parameters in each urination, and the average value of two measurements was taken as a measured value of each individual.
Prostate weight: In the same manner as in Test Example 4, the weight of the prostate (ventral prostate, dorsolateral prostate, and whole) was converted to a tissue weight per 100 g of the body weight. […]

In data set [3] the test system is uterine weight associated with rat deciduoma formation. The experiment in a line: Test Example 5: antiprogesterone activity, uterine weight associated with rat deciduoma formation in ovariectomized rats. The settings on record: 192 h, Group D: 3 mg/kg oral once a day, 8 days, ovariectomized female rats, compared with solvent group, FIG. 18, read-out: inhibition rate of uterine weight increase (antiprogesterone action). In kind it is in vivo. On the procedure: For the compound A and the compound D (mifepristone), the antiprogesterone activity was measured. Specifically, a sex hormone and a test substance were repeatedly administered to ovariectomized rats as a test system to examine the antiprogesterone action (antiprogesterone activity) based on, as an index, the fluctuation of the uterine weight (the inhibitory action relative to the increase of the weight) associated with rat deciduoma formation.
More specifically, rats (female, Crl:CD(SD), 5-week-old: Charles River Laboratories Japan, Inc.) were subjected to ovariectomy, and from one (1) week after the ovariectomy, a high dose estrone or 5 μg/one animal was hypodermically administered to the rats once a day for three (3) days. From the day after one day rest period, the rats received, once a day over eight (8) days, hypodermic administration of a low dose estrone (1 μg/one animal), intramuscular administration of progesterone (6 mg/kg), and oral administration of a test substance. In the middle of the administration, on Day 4 of the start of administration, the rats were subjected to a stimulation treatment of decidualization reaction to the right uterus. The day after the final administration, the uterine weight (right uterine body) was measured (n=6). Group E was subjected to ovariectomy and a stimulation treatment of decidualization reaction but was not subjected to a hormone treatment.
The test substances and the dosage in the test system (ovariectomized rats) are as follows. • Group E: rats with ovariectomy without hormone treatment • 0.5 v/v % Polysorbate 80 solution, 10 mL/kg (n=6) • Solvent group (control group): 0.5 v/v % Polysorbate 80 solution, 10 mL/kg (n=6) • Group A3: Compound A, 3 mg/kg (n=6) • Group A10: Compound A, 10 mg/kg (n=6) • Group A30: Compound A, 30 mg/kg (n=6) • Group D: Compound D (mifepristone), 3 mg/kg (n=6)

The mark [4] stands for this setting: Group C0.3: 0.3 mg/kg oral, 4 weeks, relative to solvent group.

Turning to `CC(=O)O[C@]1(C(C)=O)CC[C@H]2[C@@H]3C=C(Cl)C4=CC(=O)OC[C@]4(C)[C@H]3CC[C@@]21C` [Compound B, 17α-acetoxy-6-chloro-2-oxa-4,6-pregnadiene-3,20-dione, reference compound], the residual urine volume result in data set [1] (Groups B3 and B10: 3 mg/kg and 10 mg/kg oral once a day, vs control group, FIG. 1) is given as “significantly increased”. Also, the urination efficiency entry in data set [1] (Groups B3 and B10: 3 mg/kg and 10 mg/kg oral once a day, vs control group, FIG. 2) is reported as “reduced”. Further, in data set [1] (Groups B3 and B10: 3 mg/kg and 10 mg/kg oral once a day, vs control group, FIG. 3), the bladder capacity entry was “significantly increased”. In addition, the bladder wet weight entry in data set [1] (Groups B: 3 mg/kg and 10 mg/kg oral once a day, FIG. 4) is recorded as “in the direction of increasing”. In data set [1] (Groups B: 3 mg/kg and 10 mg/kg oral once a day, FIG. 5), the kidney wet weight result is reported as “in the direction of increasing”. For the same molecule, in data set [1] (Groups B: 3 mg/kg and 10 mg/kg oral once a day, FIG. 6), the survival rate result was “decreased”.
Turning to `C[C@]12C=CC(=O)N[C@@H]1CC[C@@H]1[C@@H]2CC[C@]2(C)[C@@H](C(=O)Nc3cc(C(F)(F)F)ccc3C(F)(F)F)CC[C@@H]12` [Compound C, dutasteride, reference compound], the “therapeutic effect on diabetes (blood glucose level)” value in data set [2] (Group C0.3: 0.3 mg/kg oral, 4 weeks) was “no therapeutic effect on diabetes”. For the same molecule, in data set [2] (setting [4]), the “Dorsolateral prostate (atrophy rate)” value is “(37.5%)”, the “Ventral prostate (atrophy rate)” value is reported as “(42.7%)” and the “Whole prostate (atrophy rate)” value is on record as “(40.7%)”. Also, in data set [2] (Group C0.3: 0.3 mg/kg, FIG. 21), the “bladder contraction force on urination by nomogram analysis (distance from the origin)” value is given as “almost the same position as the solvent group”. The residual urine volume entry in data set [2] (Group C0.3: 0.3 mg/kg, cystometry under awake condition, vs solvent group, FIG. 19) was “did not statistically affect”. Besides, in data set [2] (Group C0.3: 0.3 mg/kg, cystometry under awake condition, vs solvent group, FIG. 20), the urination efficiency entry was “did not statistically affect”.
For the molecule `CC#C[C@]1(O)CC[C@H]2[C@@H]3CCC4=CC(=O)CCC4=C3[C@@H](c3ccc(N(C)C)cc3)C[C@@]21C` [Compound D, mifepristone, reference compound], the inhibition at 3 mg/kg in data set [3] was found to be 89.5%.

Usually inhibition stands for the percentage by which the read-out fell short of the control.
